Test results from publication PMC6173055, “Structure and function of a glycoside hydrolase family 8 endoxylanase from Teredinibacter turnerae” (Acta Crystallographica. Section D, Structural Biology, 2018).

Molecular target: T1, TtGH8 (Teredinibacter turnerae, UniProt C5BJ89)
T1 construct: gene TERTU_4506; catalytic domain, residues 41-436; signal peptide and linker removed; N-terminal His6 tag cut off with 3C protease; codon-optimised, expressed in E. coli BL21
Assay: thermal shift (SYPRO Orange)
Type: binding
Settings: 10 mM ligand

T1 sequence (C5BJ89 entry or part of it): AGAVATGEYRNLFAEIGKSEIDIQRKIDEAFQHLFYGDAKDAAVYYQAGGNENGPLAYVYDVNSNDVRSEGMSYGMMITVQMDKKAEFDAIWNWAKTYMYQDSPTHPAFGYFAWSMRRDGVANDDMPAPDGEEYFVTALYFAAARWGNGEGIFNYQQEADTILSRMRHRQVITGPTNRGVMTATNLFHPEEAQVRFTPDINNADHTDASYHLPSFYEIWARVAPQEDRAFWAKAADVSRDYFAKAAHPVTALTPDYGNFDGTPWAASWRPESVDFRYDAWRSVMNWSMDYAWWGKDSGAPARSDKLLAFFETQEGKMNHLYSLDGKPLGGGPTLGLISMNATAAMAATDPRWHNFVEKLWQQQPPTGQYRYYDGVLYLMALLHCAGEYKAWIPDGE

Structure (SMILES): OC1OC[C@@H](O[C@@H]2OC[C@@H](O[C@@H]3OC[C@@H](O[C@@H]4OC[C@@H](O[C@@H]5OC[C@@H](O[C@@H]6OC[C@@H](O)[C@H](O)[C@H]6O)[C@H](O)[C@H]5O)[C@H](O)[C@H]4O)[C@H](O)[C@H]3O)[C@H](O)[C@H]2O)[C@H](O)[C@H]1O (stereo partly shown) [X6, xylohexaose]
- increase in melting temperature: 2.9 °C
